# Measured values published in patent US7582678B2, “Use of branched-chain fatty acids and derivatives thereof for the treatment of pain” (D-PHARM Limited, priority 1998, dated 2009).
# Marks after values point to notes of the source that are not given here.
# Tests used:
# Male CD-1 mice = test: Tail flick assay (radiated heat, acute pain) in mice; conditions: for size of analgesic effect, ranking among tested compounds: tail flick, Table 1;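 as to all read-outs here: infrared heat aimed at the tail of restrained mice, time until tail flick recorded as mean of 2-3 readings, 4-8 animals per group, compared with vehicle-treated animals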
# Description: The analgesic effect of branched-chain fatty acids (BFAs) and their DP-BFAs derivatives was tested by using the tail flick assay in mice.
# This model uses radiated infrared (IR) heat source that is directed to the tail of a restrained mouse. The threshold of tolerance for heat is indicated by a time-meter, which is stopped instantaneously when the tail flicks. This time is defined as ‘withdrawal latency’.
# Male CD-1 mice weighing around 25-30 grams (4-8 animals per each dose of the tested compound) were used. The animals were put in clear plastic cages above an IR source (7371-Plantar™ Analgesia Instrument, UGO Basile), where the IR generator is placed directly underneath the tail of the mouse and the light beam is focused on the proximal third of the tail.
# The withdrawal latency, namely the time interval from the starting of the infrared radiation until the animal feels pain and flicks its tail is determined. The initial withdrawal latency for each animal was measured at t=0 and was determined as its baseline threshold.
# In order to determine the analgesic effect of a tested drug, the drug (10 to 200 mg/kg body weight) was administered to mice either orally (p.o.) or by intraperitoneal (i.p.) or subcutaneous (s.c.) injection. Withdrawal latency was determined at different time points post-administration of the drug as indicated. Each reading was performed 2-3 times and the mean-value was calculated. […] The withdrawal latency at each time point post injection is the average of 4-8 animals per group. […] Paired T-test was used to assess significance in comparison to the baseline value (t=0). Morphine was used as a positive control (2 animals per dose).
# [1] = I.P., 200 mg/kg, 15 min post-injection
# [2] = I.P., 200 mg/kg, 45 min post-injection
# [3] = I.P., 200 mg/kg, 75 min post-injection
# [4] = I.P., 200 mg/kg, 105 min post-injection
# [5] = I.P., 50 mg/kg, 15 min post-injection
# [6] = I.P., 50 mg/kg, 45 min post-injection
# [7] = I.P., 50 mg/kg, 75 min post-injection
# [8] = I.P., 50 mg/kg, 105 min post-injection
# [9] = I.P., 50 mg/kg, 135 min post-injection
# [10] = I.P., 100 mg/kg, 15 min post-injection
# [11] = I.P., 100 mg/kg, 45 min post-injection
# [12] = I.P., 100 mg/kg, 75 min post-injection
# [13] = I.P., 100 mg/kg, 105 min post-injection
# [14] = I.P., 100 mg/kg, 135 min post-injection
# [15] = I.P., 200 mg/kg, 135 min post-injection
# [16] = I.P., 50 mg/kg, 285 min post-injection
# [17] = I.P., 50 mg/kg, 345 min post-injection
# [18] = I.P., 100 mg/kg, 285 min post-injection
# [19] = I.P., 100 mg/kg, 345 min post-injection
SMILES,Withdrawal latency (% of vehicle) (Male CD-1 mice; [1]),Withdrawal latency (% of vehicle) (Male CD-1 mice; [2]),Withdrawal latency (% of vehicle) (Male CD-1 mice; [4]),Withdrawal latency (% of vehicle) (Male CD-1 mice; [5]),Withdrawal latency (% of vehicle) (Male CD-1 mice; [6]),Withdrawal latency (% of vehicle) (Male CD-1 mice; [7]),Withdrawal latency (% of vehicle) (Male CD-1 mice; [8]),Withdrawal latency (% of vehicle) (Male CD-1 mice; [9]),Withdrawal latency (% of vehicle) (Male CD-1 mice; [10]),Withdrawal latency (% of vehicle) (Male CD-1 mice; [11]),Withdrawal latency (% of vehicle) (Male CD-1 mice; [12]),Withdrawal latency (% of vehicle) (Male CD-1 mice; [13]),Withdrawal latency (% of vehicle) (Male CD-1 mice; [14]),other results
"CCCCCC(CCCCC)C(=O)O [M(5,5), 2-Pentylheptanoic acid]",161% of vehicle,135% of vehicle,158% of vehicle,,,,,,,,,,,"Withdrawal latency (% of vehicle) (Male CD-1 mice; [3]): 145% of vehicle; size of analgesic effect, ranking among tested compounds (Male CD-1 mice): largest analgesic effects"
"CCCCCCCCCCC(CCC)C(=O)O (stereo not shown) [M(3,10)—Na, 2-Propyldodecanoic acid]",158% of vehicle,220% of vehicle,141% of vehicle,151% of vehicle,138% of vehicle,128% of vehicle,123% of vehicle,102% of vehicle,181% of vehicle,153% of vehicle,121% of vehicle,143% of vehicle,148% of vehicle,Withdrawal latency (% of vehicle) (Male CD-1 mice; [3]): 216% of vehicle; Withdrawal latency (% of vehicle) (Male CD-1 mice; [15]): 175% of vehicle
"CCCCCCCC(CCC)C(=O)O (stereo not shown) [M(3,7), 2-Propylnonanoic acid]",,,,,,,,,,,,,,"Withdrawal latency (% of vehicle) (Male CD-1 mice; I.P., 150 mg/kg, 15 min post-injection): 157% of vehicle; Withdrawal latency (% of vehicle) (Male CD-1 mice; I.P., 150 mg/kg, 45 min post-injection): 137% of vehicle; Withdrawal latency (% of vehicle) (Male CD-1 mice; I.P., 150 mg/kg, 75 min post-injection): 106% of vehicle; Withdrawal latency (% of vehicle) (Male CD-1 mice; I.P., 150 mg/kg, 105 min post-injection): 131% of vehicle"
"CCCCCCCCCCCCCCCCCC(=O)OC[C@H](COP(=O)([O-])OCC[N+](C)(C)C)OC(=O)C(CCC)CCCCCCC (stereo partly shown) [DP-M(3,7), 1-O-stearoyl-2-propylnonayl-sn-glycero-3-phosphocholine]",,,,132% of vehicle,123% of vehicle,119% of vehicle,102% of vehicle,112% of vehicle,127% of vehicle,156% of vehicle,124% of vehicle,114% of vehicle,126% of vehicle,Withdrawal latency (% of vehicle) (Male CD-1 mice; [16]): 119% of vehicle; Withdrawal latency (% of vehicle) (Male CD-1 mice; [17]): 114% of vehicle; Withdrawal latency (% of vehicle) (Male CD-1 mice; [18]): 127% of vehicle; Withdrawal latency (% of vehicle) (Male CD-1 mice; [19]): 125% of vehicle
"CCCCCCCCCCCCCCCCCC(=O)OC[C@H](COP(=O)([O-])OCC[N+](C)(C)C)OC(=O)C(CCCCC)CCCCC [DP-M(5,5), 1-O-stearoyl-2-pentylheptonayl-sn-glycero-3-phosphocholine]",,,,113% of vehicle,107% of vehicle,118% of vehicle,142% of vehicle,152% of vehicle,148% of vehicle,143% of vehicle,148% of vehicle,162% of vehicle,171% of vehicle,"Withdrawal latency (% of vehicle) (Male CD-1 mice; [16]): 121% of vehicle; Withdrawal latency (% of vehicle) (Male CD-1 mice; [17]): 124% of vehicle; Withdrawal latency (% of vehicle) (Male CD-1 mice; [18]): 155% of vehicle; Withdrawal latency (% of vehicle) (Male CD-1 mice; [19]): 124% of vehicle; dose dependence of analgesic effect (Male CD-1 mice; i.p. 25, 50, 100 mg/kg (FIG. 1)): dose dependent; size of analgesic effect, ranking among tested compounds (Male CD-1 mice): largest analgesic effects"
"CCCCCCCC(CCCCCCC)C(=O)O [M(7,7), 2-Heptylnonanoic acid]",93% of vehicle,124% of vehicle,149% of vehicle,,,,,,,,,,,Withdrawal latency (% of vehicle) (Male CD-1 mice; [3]): 117% of vehicle; Withdrawal latency (% of vehicle) (Male CD-1 mice; [15]): 124% of vehicle
"CN1CC[C@]23c4c5ccc(O)c4O[C@H]2[C@@H](O)C=C[C@H]3[C@H]1C5 [Morphine, reference compound]",,,,,,,,,,,,,,"Withdrawal latency (% of vehicle) (Male CD-1 mice; I.P., 1 mg/kg, 15 min post-injection): 97% of vehicle; Withdrawal latency (% of vehicle) (Male CD-1 mice; I.P., 1 mg/kg, 45 min post-injection): 136% of vehicle; Withdrawal latency (% of vehicle) (Male CD-1 mice; I.P., 1 mg/kg, 75 min post-injection): 207% of vehicle; Withdrawal latency (% of vehicle) (Male CD-1 mice; I.P., 1 mg/kg, 105 min post-injection): 179% of vehicle; Withdrawal latency (% of vehicle) (Male CD-1 mice; I.P., 1 mg/kg, 255 min post-injection): 142%** % of vehicle; Withdrawal latency (% of vehicle) (Male CD-1 mice; I.P., 10 mg/kg, 15 min post-injection): 139% of vehicle; Withdrawal latency (% of vehicle) (Male CD-1 mice; I.P., 10 mg/kg, 45 min post-injection): 171% of vehicle; Withdrawal latency (% of vehicle) (Male CD-1 mice; I.P., 10 mg/kg, 75 min post-injection): 284% of vehicle; Withdrawal latency (% of vehicle) (Male CD-1 mice; I.P., 10 mg/kg, 105 min post-injection): 238% of vehicle; Withdrawal latency (% of vehicle) (Male CD-1 mice; I.P., 10 mg/kg, 255 min post-injection): 151%** % of vehicle"
"CCCCCCCCCCCCCCCCCCC(CCC)C(=O)O (stereo not shown) [M(3,18), 2-Propyleicosanoic acid]",,,,,,,,,,,,,,melting point: 55.6 to 57.4 °C
"CCCCCCCCCCCCCCCCCC(=O)OC[C@H](COP(=O)([O-])OCC[N+](C)(C)C)OC(=O)C(CCC)CCCCCCCCCC (stereo partly shown) [DP-M(3,10), 1-O-stearoyl-2-propyldodecanoyl-sn-glycero-3-phosphocholine]",,,,123% of vehicle,119% of vehicle,113% of vehicle,123% of vehicle,123% of vehicle,,,,,,Withdrawal latency (% of vehicle) (Male CD-1 mice; [16]): 129% of vehicle; Withdrawal latency (% of vehicle) (Male CD-1 mice; [17]): 107% of vehicle
"CCCCCC(CCCCC)C(=O)O [M(5,5)—Na, 2-Pentylheptanoic acid]",,,,115% of vehicle,124% of vehicle,117% of vehicle,134% of vehicle,,137% of vehicle,164% of vehicle,164% of vehicle,193% of vehicle,,
"CCCCCCCC(CCCCCCC)OP(=O)(O)O [(7,7)-PO4, 8-Pentadecanyl Phosphate]",,,,,,,,,,,,,,"Withdrawal latency (% of vehicle) (Male CD-1 mice; P.O., 200 mg/kg, 45 min post-administration): 93% of vehicle; Withdrawal latency (% of vehicle) (Male CD-1 mice; P.O., 200 mg/kg, 75 min post-administration): 94% of vehicle; Withdrawal latency (% of vehicle) (Male CD-1 mice; P.O., 200 mg/kg, 105 min post-administration): 124% of vehicle; Withdrawal latency (% of vehicle) (Male CD-1 mice; P.O., 200 mg/kg, 135 min post-administration): 133% of vehicle; Withdrawal latency (% of vehicle) (Male CD-1 mice; P.O., 200 mg/kg, 285 min post-administration): 162% of vehicle; Withdrawal latency (% of vehicle) (Male CD-1 mice; P.O., 200 mg/kg, 345 min post-administration): 129% of vehicle"
"CCCCCCCCCCC(CCC)C(=O)O (stereo not shown) [M(3,10), 2-Propyldodecanoic acid]",186% of vehicle,210% of vehicle,183% of vehicle,,,,,,142% of vehicle,155% of vehicle,131% of vehicle,156% of vehicle,123% of vehicle,"size of analgesic effect, ranking among tested compounds (Male CD-1 mice): largest analgesic effects"
